Data from US20210317140A1, “Heterocyclic Compounds and Methods of Use” (MEDIVATION TECHNOLOGIES, INC, priority 2013, published 2021).

Legend:
[1] = target: T1, BTK (Homo sapiens, UniProt Q06187); test: BTK kinase assay (HotSpot, 33P ATP); assay type: biochemical; details: for BTK @ 0.01 μM (% Inh): 0.01 μM compound; for BTK @ 0.01 μM (% Inh) / BTK @ 0.1 μM (% Inh) / BTK @ 1 μM (% Inh): 10 μM ATP; for BTK @ 0.1 μM (% Inh): 0.1 μM compound; for IC50: 10 dose IC50, 10 μM ATP; for BTK @ 1 μM (% Inh): 1 μM compound
T1 construct: purchased Reaction Biology Corporation
Method in brief: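 In 20 mM Hepes (pH 7.5) with 10 mM MgCl2, 1 mM EGTA, 0.1 mM Na3VO4, 2 mM DTT, 0.02% Brij35, 0.02 mg/mL BSA and 1% DMSO, kinase and substrate were exposed to ten compound doses for 15–20 min.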

[2] = test system: CD69+B220+ cells; test: B cell activation assay (IgD-stimulated splenocytes, CD69+B220+ cells by FACS); assay type: cell-based; details: mouse splenocytes, IgD 3 μg/mL, 4 h; for CD69 @ 100 nM (% Inh): 100 nM compound
Procedure: 1 Female mouse approximately 2 months old was euthanized with CO2 and the spleen removed. The tissue was homogenized with a polished glass microscope slide. The cells were collected in 5 mL complete medium (RPMI+10% FBS+pen/strep), placed in a 15 mL falcon tube and centrifuged at 500×g for 5 min. The supernatant was discarded and the pellet was resuspended in 3 mL of ACK lysis buffer (NH4Cl 0.17M, KHCO3 10 mM, EDTA-Na2 0.1 mM, pH 7.2), incubated at 37° C. for 5 min. 2 mL complete medium was added and the mixture centrifuged at 500×g for 5 min. The supernatant was discarded and the pellet resuspended in 1 mL complete medium. The mixture was passed through a […] cell strainer and collect in 50 mL falcon tube. Enough medium was added to have a total of 10 mL. The cells were counted and seeded in 24 or 48-well plate in 1 mL complete medium at 10^6 cells/mL. The plate was placed in a 37° C. incubator for 15 min. The cells were treated for 30 min at 37° C. with 100 nM test compound dissolved in 100% DMSO. 3 μL IgD (Accurate chemical and scientific corp.) was added at a final concentration of 3 μg/mL and the mixture incubated at 37° C. for 4 h. The cells were collected in 1.5 mL eppendorf tubes, centrifuged at 500×g for 5 min and then resuspended in 100 μL of PBS+2% FBS. The following antibodies were added: α-B220 PE (pharmingen #553090), α-CD69 APC (pharmingen #60689), live/dead fixable aqua dead cell stain kit (life technologies #L34957) all at 1:300, and the mixture incubated for 15 min at 4° C. in the dark. To this was added 900 μL of PBS+2% FBS and the mixture centrifuged at 500×g for 5 min. The supernatant was removed and the pellet resuspended in 300 μL of PBS+2% FBS and mixed well. The mixture was transferred to a cytometer tube. The samples were run in the FACS Canto II cytometer and quantified by the number of CD69+B220+ cells as a percentage of the total number of B220+ alive cells.

[3] = target: T2, PI3Kδ (Homo sapiens, UniProt O00329); test: PI3Kδ kinase assay (HTRF, PIP3 detection); assay type: biochemical; details: for PI3Kδ @ 0.01 μM (% Inh): 0.01 μM compound; for PI3Kδ @ 0.01 μM (% Inh) / PI3Kδ @ 0.1 μM (% Inh) / PI3Kδ @ 1 μM (% Inh): 10 μM ATP; for PI3Kδ @ 0.1 μM (% Inh): 0.1 μM compound; for IC50: 10 dose IC50, 10 μM ATP; for PI3Kδ @ 1 μM (% Inh): 1 μM compound
T2 construct: purchased Reaction Biology Corporation
Method in brief: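 PIP3 formation read by loss of energy transfer as it displaces biotin-PIP3 from a Eu anti-GST/GST-PH/streptavidin-APC complex, calibrated against PIP3 standards.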

T2 sequence (O00329 whole entry): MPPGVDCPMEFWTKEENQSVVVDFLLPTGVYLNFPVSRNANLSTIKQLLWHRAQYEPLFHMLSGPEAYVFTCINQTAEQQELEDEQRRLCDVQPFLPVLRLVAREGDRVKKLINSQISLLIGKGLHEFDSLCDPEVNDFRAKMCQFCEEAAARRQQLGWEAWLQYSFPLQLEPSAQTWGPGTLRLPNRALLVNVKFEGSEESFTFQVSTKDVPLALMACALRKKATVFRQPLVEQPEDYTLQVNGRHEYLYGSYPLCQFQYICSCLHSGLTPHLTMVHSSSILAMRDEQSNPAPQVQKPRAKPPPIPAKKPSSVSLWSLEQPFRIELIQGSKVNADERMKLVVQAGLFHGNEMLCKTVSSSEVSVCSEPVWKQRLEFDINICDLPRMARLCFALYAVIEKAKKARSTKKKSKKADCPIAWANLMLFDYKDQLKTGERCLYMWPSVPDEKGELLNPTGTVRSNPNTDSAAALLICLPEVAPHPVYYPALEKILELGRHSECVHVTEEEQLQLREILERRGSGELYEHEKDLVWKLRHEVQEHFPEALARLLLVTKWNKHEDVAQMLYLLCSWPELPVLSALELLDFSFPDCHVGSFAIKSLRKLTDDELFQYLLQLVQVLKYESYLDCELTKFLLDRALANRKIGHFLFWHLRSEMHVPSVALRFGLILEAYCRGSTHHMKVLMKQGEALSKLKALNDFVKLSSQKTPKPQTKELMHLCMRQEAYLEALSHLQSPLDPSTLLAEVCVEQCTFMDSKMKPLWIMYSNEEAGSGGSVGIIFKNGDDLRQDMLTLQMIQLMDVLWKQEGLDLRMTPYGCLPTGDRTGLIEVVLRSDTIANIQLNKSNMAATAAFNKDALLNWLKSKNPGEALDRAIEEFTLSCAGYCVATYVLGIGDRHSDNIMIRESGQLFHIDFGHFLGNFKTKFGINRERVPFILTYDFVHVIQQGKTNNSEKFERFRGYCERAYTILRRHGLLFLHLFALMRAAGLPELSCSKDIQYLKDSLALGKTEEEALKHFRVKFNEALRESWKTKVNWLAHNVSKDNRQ
T2 sequence (P27986 whole entry partner): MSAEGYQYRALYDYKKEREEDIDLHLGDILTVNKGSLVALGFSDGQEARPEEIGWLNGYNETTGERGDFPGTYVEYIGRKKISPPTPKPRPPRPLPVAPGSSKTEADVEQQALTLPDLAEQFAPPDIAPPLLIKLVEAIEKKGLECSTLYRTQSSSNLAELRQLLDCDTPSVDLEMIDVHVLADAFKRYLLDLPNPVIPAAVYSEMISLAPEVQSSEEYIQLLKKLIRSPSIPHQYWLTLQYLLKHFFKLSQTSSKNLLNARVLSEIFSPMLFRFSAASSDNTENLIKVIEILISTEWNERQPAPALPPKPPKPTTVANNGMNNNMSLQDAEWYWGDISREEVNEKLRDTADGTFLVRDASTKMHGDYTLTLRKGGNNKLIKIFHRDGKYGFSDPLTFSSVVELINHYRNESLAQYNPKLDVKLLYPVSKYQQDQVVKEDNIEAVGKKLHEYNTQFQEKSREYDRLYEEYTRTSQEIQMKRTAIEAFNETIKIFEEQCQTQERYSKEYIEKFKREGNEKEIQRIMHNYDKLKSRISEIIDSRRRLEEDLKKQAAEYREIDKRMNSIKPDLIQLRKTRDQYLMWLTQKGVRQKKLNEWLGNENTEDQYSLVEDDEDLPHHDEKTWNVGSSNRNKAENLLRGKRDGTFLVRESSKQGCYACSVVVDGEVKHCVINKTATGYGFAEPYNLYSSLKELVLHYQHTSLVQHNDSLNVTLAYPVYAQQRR
T1 sequence (Q06187 whole entry): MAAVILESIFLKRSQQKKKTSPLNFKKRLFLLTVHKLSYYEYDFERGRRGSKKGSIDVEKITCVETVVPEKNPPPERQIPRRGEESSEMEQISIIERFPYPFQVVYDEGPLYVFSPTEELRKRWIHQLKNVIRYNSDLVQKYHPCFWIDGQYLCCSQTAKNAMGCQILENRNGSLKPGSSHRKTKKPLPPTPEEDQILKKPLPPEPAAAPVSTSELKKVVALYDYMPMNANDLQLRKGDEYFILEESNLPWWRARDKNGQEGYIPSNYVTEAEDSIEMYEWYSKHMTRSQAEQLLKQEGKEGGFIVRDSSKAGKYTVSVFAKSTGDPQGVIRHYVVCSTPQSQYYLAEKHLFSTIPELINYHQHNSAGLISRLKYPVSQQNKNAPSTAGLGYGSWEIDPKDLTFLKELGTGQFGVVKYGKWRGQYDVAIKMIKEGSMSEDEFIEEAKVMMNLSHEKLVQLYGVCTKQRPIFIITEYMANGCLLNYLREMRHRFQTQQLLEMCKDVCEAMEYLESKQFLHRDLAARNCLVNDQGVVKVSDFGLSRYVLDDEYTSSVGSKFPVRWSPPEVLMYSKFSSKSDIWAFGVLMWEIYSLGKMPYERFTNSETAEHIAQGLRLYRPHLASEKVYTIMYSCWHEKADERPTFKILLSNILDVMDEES

SMILES	BTK @ 0.01 μM (% Inh) [1] [% Inh]	BTK @ 0.1 μM (% Inh) [1] [% Inh]	IC50 [1] [nM]	CD69 @ 100 nM (% Inh) [2]	PI3Kδ @ 0.01 μM (% Inh) [3] [% Inh]	PI3Kδ @ 0.1 μM (% Inh) [3] [% Inh]	IC50 [3] [nM]	BTK @ 1 μM (% Inh) [1] [% Inh]	PI3Kδ @ 1 μM (% Inh) [3] [% Inh]	IC50 ([2]; Splenocyte) [nM]
COc1cc(-c2nn(C3Cc4ccccc4C3)c3ncnc(N)c23)ccc1O [Compound No. 85, 4-[4-amino-1-(2,3-dihydro-1H-inden-2-yl)-1H-pyrazolo[3,4-d]pyrimidin-3-yl]-2-methoxyphenol]	12.89	43.43	154	24.82 ± 9.20 (n = 3) % Inh	35.56	59.95	34.7			
Nc1ncnc2c1c(-c1cc(O)c(Cl)cc1Cl)nn2C1Cc2ccccc2C1 [Compound No. 103, 5-[4-amino-1-(2,3-dihydro-1H-inden-2-yl)-1H-pyrazolo[3,4-d]pyrimidin-3-yl]-2,4-dichlorophenol]		47.24	162	25.06 ± 22.54 (n = 5) % Inh		72.71	45.7	89.82	94.52	
Nc1cc(-c2nn(C3Cc4ccccc4C3)c3ncnc(N)c23)cnc1Cl [Compound No. 104, 5-[4-amino-1-(2,3-dihydro-1H-inden-2-yl)-1H-pyrazolo[3,4-d]pyrimidin-3-yl]-2-chloropyridin-3-amine]		72.07	54.9	28.78 ± 19.62 (n = 5) % Inh		38.16	282	94.25	82.84	
COc1cc(-c2nn(C3Cc4ccccc4C3)c3ncnc(N)c23)cc(C#N)c1OC [Compound No. 105, 5-[4-amino-1-(2,3-dihydro-1H-inden-2-yl)-1H-pyrazolo[3,4-d]pyrimidin-3-yl]-2,3-dimethoxybenzonitrile]		27.50		24.25 ± 33.84 (n = 5) % Inh		16.0		59.18	34.72	
Nc1ncnc2c1c(-c1cc(O)cc(F)c1)nn2C1CCc2cc(F)ccc21 (stereo not drawn) [compound 42, 3-[4-amino-1-(5-fluoro-2,3-dihydro-1H-inden-1-yl)-1H-pyrazolo[3,4-d]pyrimidin-3-yl]-5-fluorophenol]		23.06		22.71 ± 5.53 (n = 3) % Inh		70.85				
Nc1ncnc2c1c(-c1ccc3[nH]c(O)nc3c1)nn2C1Cc2ccccc2C1 [compound 108, 5-[4-amino-1-(2,3-dihydro-1H-inden-2-yl)-1H-pyrazolo[3,4-d]pyrimidin-3-yl]-1H-1,3-benzodiazol-2-ol]	1.76	6.6		11.99 ± 7.58 (n = 3) % Inh	9.28	21.98				
Nc1cc(-c2nn(C3Cc4ccccc4C3)c3ncnc(N)c23)cc(F)c1F [compound 109, 3-(3-amino-4,5-difluorophenyl)-1-(2,3-dihydro-1H-inden-2-yl)-1H-pyrazolo[3,4-d]pyrimidin-4-amine]	14.85	63.35		10.19 ± 14.12 (n = 3) % Inh	2.46	26.17				
NC(=O)c1ccc(-c2nn(C3Cc4ccccc4C3)c3ncnc(N)c23)cc1O [compound 111, 4-[4-amino-1-(2,3-dihydro-1H-inden-2-yl)-1H-pyrazolo[3,4-d]pyrimidin-3-yl]-2-hydroxybenzamide]	6.49	17.47		57.39 ± 5.05 (n = 3) % Inh	64.38	91.28				118 ± 11.1
